Results as given in a compilation of properties of binary mixtures (doi:10.1021/acs.jced.1c00419).

Experiment: xn = mol fraction of the nth substance listed
Settings: 101.3 kPa

NC1CCCCC1 + CCCCCCCCn1cc[n+](C)c1.F[B-](F)(F)F
x2 = 0
Settings | speed of sound [m/s]
293.15 K | 1430
303.15 K | 1387
323.15 K | 1302

NC1CCCCC1 + CCCCCC[n+]1ccn(C)c1.F[B-](F)(F)F
x2 = 0
Settings | speed of sound [m/s]
293.15 K | 1430
298.15 K | 1409
303.15 K | 1387
308.15 K | 1366
313.15 K | 1344
318.15 K | 1323
323.15 K | 1302

CCCCCC[n+]1ccn(C)c1.F[B-](F)(F)F + NC1CCCCC1
speed of sound [m/s]
Settings | x1 = 0.097 | x1 = 0.1808 | x1 = 0.2945 | x1 = 0.396 | x1 = 0.5009 | x1 = 0.6048 | x1 = 0.7029 | x1 = 0.8008 | x1 = 0.8991
293.15 K | 1440 | 1452 | 1465 | – | 1486 | 1496 | 1505 | – | 1522
298.15 K | – | – | 1446 | 1458 | 1469 | 1480 | 1490 | 1499 | –
303.15 K | 1400 | 1411 | 1427 | 1440 | 1453 | – | 1475 | 1485 | 1496
308.15 K | 1379 | 1392 | 1408 | 1422 | 1435 | 1449 | 1460 | – | –
313.15 K | – | 1371 | 1389 | 1404 | 1418 | – | 1445 | 1457 | 1470
318.15 K | 1337 | 1351 | 1370 | 1385 | 1402 | 1417 | 1430 | 1444 | –
323.15 K | 1316 | 1331 | – | – | – | 1401 | – | 1430 | 1444

NC1CCCCC1 + CCCC[n+]1ccn(C)c1.F[B-](F)(F)F
speed of sound [m/s]
Settings | x2 = 0 | x2 = 0.0982 | x2 = 0.2032 | x2 = 0.301 | x2 = 0.4012 | x2 = 0.4828 | x2 = 0.6016 | x2 = 0.7124 | x2 = 0.8012 | x2 = 0.9024
293.15 K | – | 1442 | 1456 | 1469 | 1484 | 1496 | 1514 | 1532 | 1545 | –
298.15 K | 1409 | 1420 | 1435 | 1450 | – | 1479 | – | 1517 | 1533 | 1549
303.15 K | 1387 | 1400 | 1415 | 1431 | 1448 | 1462 | 1484 | – | 1520 | 1538
308.15 K | – | 1380 | 1395 | 1412 | 1430 | 1445 | 1467 | 1488 | 1506 | 1525
313.15 K | 1344 | 1360 | 1376 | – | 1413 | 1428 | 1452 | 1474 | 1493 | –
318.15 K | 1323 | 1340 | 1357 | – | 1396 | 1412 | 1436 | 1460 | 1479 | 1501
323.15 K | – | 1320 | 1338 | 1356 | 1378 | 1395 | – | 1446 | 1466 | 1489

CCCCCCCCn1cc[n+](C)c1.F[B-](F)(F)F + NC1CCCCC1
speed of sound [m/s]
Settings | x1 = 0.1076 | x1 = 0.203 | x1 = 0.3072 | x1 = 0.4001 | x1 = 0.492 | x1 = 0.6078 | x1 = 0.7023 | x1 = 0.7996 | x1 = 0.8963
293.15 K | – | 1453 | – | 1470 | – | 1480 | 1486 | 1490 | –
298.15 K | 1423 | – | 1445 | 1452 | 1459 | 1465 | – | 1475 | 1480
303.15 K | – | – | 1427 | 1435 | 1443 | 1450 | 1455 | 1460 | 1466
308.15 K | 1382 | 1396 | – | 1418 | 1426 | 1435 | 1440 | 1446 | 1452
313.15 K | 1362 | 1377 | 1391 | 1401 | – | 1419 | 1426 | 1432 | 1439
318.15 K | 1342 | 1358 | – | – | 1394 | – | – | 1418 | 1426
323.15 K | – | 1340 | 1355 | 1368 | 1377 | 1388 | 1396 | 1405 | –
